Assay results taken from patent US8119684B2, “Thiophene derivatives for up-regulating HLA-DM activity” (Dana-Farber Cancer Institute, Inc., priority 2003, dated 2012).

Columns and labels:
[1] = target: T1, HLA-DM catalyzed peptide exchange on HLA-DR2 (Homo sapiens, UniProt P28067+P28068); assay: Antigen Presentation Screen: fluorescence polarization association assay of Alexa 488-labeled MBP 85-99 binding to HLA-DR2b/CLIP in the presence of HLA-DM; assay type: biochemical
T1 construct: made in house; host or cells: HLA-DM: S2 insect cells; HLA-DR2b: COS cells; peptides synthesized by New England Peptide, Inc
T1 sequence (P28067 27-233 limits assumed): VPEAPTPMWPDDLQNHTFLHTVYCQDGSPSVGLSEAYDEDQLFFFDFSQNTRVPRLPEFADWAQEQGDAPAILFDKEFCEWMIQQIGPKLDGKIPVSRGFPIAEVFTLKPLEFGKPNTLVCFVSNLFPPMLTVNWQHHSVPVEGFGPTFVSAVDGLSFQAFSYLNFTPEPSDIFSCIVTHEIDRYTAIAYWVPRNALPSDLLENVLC
T1 sequence (P28068 19-218 limits assumed): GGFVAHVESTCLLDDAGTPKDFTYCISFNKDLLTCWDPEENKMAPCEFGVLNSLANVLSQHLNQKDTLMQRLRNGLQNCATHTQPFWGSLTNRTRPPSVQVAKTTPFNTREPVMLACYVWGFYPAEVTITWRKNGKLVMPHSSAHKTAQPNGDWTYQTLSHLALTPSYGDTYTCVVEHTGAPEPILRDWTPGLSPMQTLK
Source text: In one detailed aspect of the invention, an assay is described below for detecting and monitoring HLA-DM catalyzed peptide exchange. In particular, the kinetics of peptide exchange can be evaluated and the effects on such kinetics of test compounds can be evaluated. A labeled peptide, such as a fluorescently labled MBP peptide, can be visualized binding to isolated HLA-DR2 in the presence of HLA-DM by Fluorescence Polarization (FP). FP can detect the motion of a fluorescently labeled peptide such as MBP (85-99). The FP detected increases when a fluorescently labeled peptide binds to a receptor. This assay may allow peptide binding to HLA-DR2 to be monitored in real time without interrupting the reaction. In this manner, a number of readings can be made at different times during a single assay. This can provide information about the rate of transfer of a peptide, leading to the identification of compounds that increase or decrease the rate of peptide exchange. It may also lead to the identification of compounds that decrease the rate of peptide exchange by directly preventing peptide binding to MHC class II.
In the assay described below (Antigen Presentation Screen), Fluorescence Polarization (FP) can be used to monitor the kinetics, including the exchange rate, of exchanging CLIP for myelin basic protein (MBP) peptide on isolated HLA-DR2. MBP peptide consisting of amino acids 85-99 of Myelin Basic Protein is labeled with the fluorescent dye Alexa 488 at the P5 position. The CLIP may be unlabled. A system of isolated HLA-DR2 containing CLIP and labeled MBP peptide are incubated in the presence of HLA-DM. The system may be exposed to test compounds and FP can be used to measure the rate of exchange of CLIP for MBP for each test compound, including a control. A change in fluorescence polarization is monitored and/or recorded using a 485 nm excitation filter and a 530 nm emission filter in a LJL Analyst. Fluorescence readings taken at time intervals can indicate how fast CLIP is being exchanged for MBP in the presence of HLA-DM.
Proteins: HLA-DR2b containing the CLIP peptide in PBS buffer synthesized by COS cells with covalently linked CLIP peptide. The linker is cut with the addition of 25 U/ml of Thrombin (Novagen 69671) (2 hr incubation at 37° C.) and blocked with Pefablock (Roche 1429-868).
HLA-DM in PBS buffer, synthesized in S2 insect cells. Purified on a anti-FLAG column with a high pH elution (50 mM CAPS pH 11.5)
Peptides: MBP 85-99 (Alexa 488 at P5 position) in H2O
• 1. Add 0.4 μl of library compound in 100% DMSO to wells (see FIG. 7) containing HLA-DR2b. (Library compounds at 50 mM). Also add 0.4 μl DMSO to all control wells during this step. This step can be carried out days before screening commences. • 2. Add 35 μl of 50 mM Citrate pH5.2/150 mM NaCl buffer to wells M23, […], N23 and N24. Add 40 μl of 50 mM Citrate pH 5.2/150 mM NaCl buffer to wells O23, O24, P23 and P24. Add 35 μl of 114 nM HLA-DR2b in 50 mM Citrate pH 5.2/150 mM NaCl buffer to appropriate wells in 384 well plate as shown below in FIG. 9. Make 114 nM HLA-DR2b solution fresh and keep cold until just before addition of library compounds • 5. By hand add 1 μl of MBP 85-99 (unlabeled) titration to control wells as described below in FIG. 10. • 6. Mix HLA-DR2b and compound by shaking with plate shaker for 1 minute. • 7. Incubate HLA-DR2b and compound for 30 minutes at room temperature. • 8. By hand add 5 μl of 80 nM MBP 85-99 (Alexa 488 at P5 position) to control wells (FIG. 11) as described below while plate is incubating at room temperature. • 9. During 30 minute incubation read plates for Fluorescent Intensity using the Analyst (Molecular Devices) Parameters described below. This step is optional if Fluorescent Intensity references have already been read for the compounds being screened. • 10. Add 5 p. 1 of MBP/DM mix (80 nM MBP 85-99 (Alexa 488 at P5 position)/800 nM HLA-DM in 50 mM Citrate pH 5.2/150 mM NaCl buffer) to begin reaction. […]

[2] = target: T1, HLA-DM catalyzed peptide exchange on HLA-DR2; assay: Dissociation assay: MBP peptide dissociating from HLA-DR2 in the presence of HLA-DM and 100-fold excess unlabeled MBP; assay type: biochemical; details: FIG. 5, F15 versus DMSO
Source text: FIG. 5b illustrates graphically a dissociation assay of MBP peptide dissociating from HLA-DR2 in the presence of HLA-DM and 100-fold excess unlabeled MBP in the peptide for both F15 and DMSO;
FIGS. 5a and 5b graphically illustrate the dose reponse curve for compound F15 for disassociation (5a) and association (5b) assays.

N#CC1=C(SC2CCCCC2)CC(C(=O)O)=C1c1ccc(Cl)cc1 [Compound F15]
increase in binding (FP) compared to the control ([1]; 30 minute sampling time, FIG. 3): about 25% | acceleration of peptide exchange over the control (factor) ([1]; F15 at 10 uM, FIG. 4): 3 | Vmax (initial velocity of MBP/HLA-DR2 binding) ([1]; F15 at 10 uM, increasing levels of DR2b, HLA-DM present, FIG. 4, control Vmax 0.02521): 0.07611 | dose response curve, association assay ([1]; FIG. 5, F15 versus DMSO): substantial effect even at very low concentrations | concentration at which a significant increase in the rate of peptide exchange is seen (as low as) ([1]; association assay, FIG. 3, various concentrations of F15): 1 µM | total amount of peptide exchange compared to the control ([1]; over a 6 hour period, FIG. 3): about equal | dose response curve, dissociation assay [2]: substantial effect even at very low concentrations
